Source: patent US7964560B2, “Hepatitis C virus inhibitors” (Bristol-Myers Squibb Company, priority 2008, dated 2011)

Assays:
[1] = target: T1, HCV NS3/4A protease complex, J4L6S strain (Hepatitis C virus genotype 1b, UniProt O92972, C1454S/C1711G); test: FRET peptide assay to monitor HCV NS3/4A proteolytic activity (J4L6S strain); format: biochemical, Hepatitis C virus (1b genotype)
T1 construct: DNA encoding the recombinant HCV NS3/4A protease complex (amino acids 1027 to 1711) for these strains; His tag (inferred from pET21b vector and Ni-NTA purification); made in house; host or cells: Escherichia coli BL21 (DE3), pET21b
T1 sequence (O92972 1027-1711 C1454S/C1711G, one chain of several): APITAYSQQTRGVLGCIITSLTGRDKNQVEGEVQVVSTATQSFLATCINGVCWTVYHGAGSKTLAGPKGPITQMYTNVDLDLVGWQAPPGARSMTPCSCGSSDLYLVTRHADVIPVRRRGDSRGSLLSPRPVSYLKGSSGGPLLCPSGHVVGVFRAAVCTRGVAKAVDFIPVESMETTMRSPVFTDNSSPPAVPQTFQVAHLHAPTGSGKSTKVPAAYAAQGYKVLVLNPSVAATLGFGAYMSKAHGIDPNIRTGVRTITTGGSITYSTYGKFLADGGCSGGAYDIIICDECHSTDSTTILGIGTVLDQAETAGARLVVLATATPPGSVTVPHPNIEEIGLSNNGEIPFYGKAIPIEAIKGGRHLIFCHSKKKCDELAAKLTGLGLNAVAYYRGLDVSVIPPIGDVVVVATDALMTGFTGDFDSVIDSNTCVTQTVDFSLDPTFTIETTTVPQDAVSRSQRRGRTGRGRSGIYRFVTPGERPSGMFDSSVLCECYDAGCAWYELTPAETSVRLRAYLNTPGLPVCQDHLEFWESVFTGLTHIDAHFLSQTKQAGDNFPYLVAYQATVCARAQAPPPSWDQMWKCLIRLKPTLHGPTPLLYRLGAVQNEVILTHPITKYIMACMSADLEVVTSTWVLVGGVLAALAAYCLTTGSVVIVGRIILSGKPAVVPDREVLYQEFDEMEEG
Description: (§1) HCV […] protease complexes, derived from the BMS strain, H77 strain or J4L6S strain, were generated, as described below. These purified recombinant proteins were generated for use in a homogeneous assay (see below) to provide an indication of how effective compounds of the present disclosure would be in inhibiting HCV NS3 proteolytic activity.
(§2) Serum from an HCV-infected patient was obtained from Dr. T. Wright, San Francisco Hospital. An engineered full-length cDNA (compliment deoxyribonucleic acid) template of the HCV genome (BMS strain) was constructed from DNA fragments obtained by reverse transcription-PCR (RT-PCR) of serum RNA (ribonucleic acid) and using primers selected on the basis of homology between other genotype 1a strains. From the determination of the entire genome sequence, a genotype 1a was assigned to the HCV isolate according to the classification of Simmonds et al. (See Simmonds, P. et al., J. Clin. Microbiol., 31(6), 1493-1503 (1993)). […] The infectious clones, H77 (1a genotype) and J4L6S (1b genotype) were obtained from R. Purcell (NIH) and the sequences are published in GENBANK® (AAB67036, see Yanagi, M. et al., Proc. Natl. Acad. Sci. U.S.A., 94(16):8738-8743 (1997); AF054247, see Yanagi, M. et al., Virology, 244(1):161-172 (1998)).
(§3) The H77 and J4L6S strains were used for production of recombinant NS3/4A protease complexes. […]

[2] = target: T2, HCV NS3/4A protease complex, H77 strain (Hepatitis C virus genotype 1a, UniProt P27958, C1454S/C1711G); test: FRET peptide assay to monitor HCV NS3/4A proteolytic activity (H77 strain); format: biochemical, Hepatitis C virus (1a genotype)
T2 construct: DNA encoding the recombinant HCV NS3/4A protease complex (amino acids 1027 to 1711) for these strains; His tag (inferred from pET21b vector and Ni-NTA purification); made in house; host or cells: Escherichia coli BL21 (DE3), pET21b
T2 sequence (P27958 1027-1711 C1454S/C1711G, one chain of several): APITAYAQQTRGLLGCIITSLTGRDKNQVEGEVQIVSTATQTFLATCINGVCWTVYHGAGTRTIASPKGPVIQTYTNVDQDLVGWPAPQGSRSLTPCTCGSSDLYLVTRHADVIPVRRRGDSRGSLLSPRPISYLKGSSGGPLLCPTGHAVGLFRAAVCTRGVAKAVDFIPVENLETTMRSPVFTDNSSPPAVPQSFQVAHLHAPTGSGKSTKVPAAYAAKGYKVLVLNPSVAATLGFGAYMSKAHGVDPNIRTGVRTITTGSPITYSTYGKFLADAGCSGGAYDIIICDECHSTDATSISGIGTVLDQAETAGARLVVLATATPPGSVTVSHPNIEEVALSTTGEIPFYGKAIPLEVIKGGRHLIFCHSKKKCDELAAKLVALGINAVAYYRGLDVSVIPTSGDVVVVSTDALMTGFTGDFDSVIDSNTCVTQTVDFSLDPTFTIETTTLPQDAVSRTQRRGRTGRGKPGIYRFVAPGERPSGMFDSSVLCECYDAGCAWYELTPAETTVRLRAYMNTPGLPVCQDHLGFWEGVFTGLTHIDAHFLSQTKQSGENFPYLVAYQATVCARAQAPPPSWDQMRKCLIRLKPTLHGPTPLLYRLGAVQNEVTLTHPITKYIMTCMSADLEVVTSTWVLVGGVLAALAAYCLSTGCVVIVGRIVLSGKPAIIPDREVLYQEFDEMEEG
Description: as §1, §2, §3

[3] = target: T3, porcine pancreatic elastase (PPE) (Sus scrofa, UniProt P00772); test: Specificity assay, porcine pancreatic elastase; format: biochemical
T3 construct: purchased Sigma, EMDbiosciences
T3 sequence (P00772 27-266): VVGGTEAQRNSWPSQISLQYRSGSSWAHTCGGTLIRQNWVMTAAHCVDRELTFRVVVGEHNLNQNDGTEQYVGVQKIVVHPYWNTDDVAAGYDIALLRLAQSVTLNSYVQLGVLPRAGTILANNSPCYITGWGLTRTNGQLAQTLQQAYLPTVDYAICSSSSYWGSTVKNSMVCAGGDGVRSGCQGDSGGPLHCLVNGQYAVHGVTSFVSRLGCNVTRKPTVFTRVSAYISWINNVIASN
Protocol: The specificities of compounds of the present disclosure were determined against a variety of serine proteases: human neutrophil elastase (HNE), porcine pancreatic elastase (PPE) and human pancreatic chymotrypsin and one cysteine protease: human liver cathepsin B. In all cases a 96-well plate format protocol using a fluorometric Amino-Methyl-Coumarin (AMC) substrate specific for each enzyme was used as described previously (PCT Patent Application No. WO 00/09543) with some modifications to the serine protease assays. All enzymes were purchased from Sigma, EMDbiosciences while the substrates were from Bachem, Sigma and EMDbiosciences.
Compound concentrations varied from 100 to 0.4 μM depending on their potency. The enzyme assays were each initiated by addition of substrate to enzyme-inhibitor pre-incubated for 10 min at room temperature and hydrolysis to 15% conversion as measured on CYTOFLUOR®.
50 mM Tris-HCl, pH 8.0, 50 mM NaCl, 0.1 mM […], 3% DMSO, 0.02% Tween-20, 5 μM succ-AAPV-AMC and 20 nM HNE or 8 nM PPE;
The percentage of inhibition was calculated using the formula: [1−((UVinh−UVblank)/(UVctl−UVblank))]×100
A non-linear curve fit was applied to the inhibition-concentration data, and the 50% effective concentration (IC50) was calculated by the use of Excel XLfit software.

SMILES: C=C[C@@H]1C[C@]1(NC(=O)[C@@H]1C[C@@](SCCCC)(c2ccc(-c3ccccc3)cc2)CN1C(=O)[C@@H](NC(=O)OC(C)(C)C)C(C)(C)C)C(=O)NS(=O)(=O)C1CC1 [Example 1, tert-butyl (S)-1-((2S,4R)-4-(biphenyl-4-yl)-4-(butylthio)-2-((1R,2S)-1-(cyclopropylsulfonylcarbamoyl)-2-vinylcyclopropylcarbamoyl)pyrrolidin-1-yl)-3,3-dimethyl-1-oxobutan-2-ylcarbamate]
- IC50 [1]: 1.1 nM
- IC50 [2]: 1.7 nM
- IC50 [3]: > 25000 nM
